From patent publication US8865750B2, “Small molecule inhibitors of RGS proteins” (The Regents of The University of Michigan, priority 2011, dated 2014)
Where two headings read alike, the source gives them in different places.

Experiments:
[1] = molecular target: PLCβ3 (Homo sapiens (Human), UniProt Q01970); assay: PLCβ inhibition assay; type: biochemical; conditions: Table 7
Protocol: PLCβ inhibition assay: Lipid vesicles containing 200 μM phosphatidylethanolamine, 50 μM PIP2 (Avanti Polar Lipids), and ˜4000-8000 cpm [^3H]-labeled PIP2 (Perkin-Elmer) per assay were generated by combining the lipids in a borosilicate glass tube and drying the mixture under a stream of nitrogen. Dried lipids were resuspended in 50 mM HEPES pH 7, 80 mM KCl, 2 mM EGTA and 1 mM DTT using a bath sonicator. Activity assays were performed in a final volume of 60 μL containing 3 ng mL^−1 PLCβ3, 50 mM HEPES pH 7, 80 mM KCl, 15 mM NaCl, 0.83 mM MgCl2, 3 mM DTT, 1 mg mL^−1 BSA, 2.5 mM EGTA, 0.2 mM EDTA, 2% DMSO, and enough CaCl2 to give a free concentration of ˜200 nM. […] The reactions were initiated by the addition of liposomes and transferred to 30° C. for 5 min. Reactions were terminated by the addition of 100 μL 10 mg mL^−1 BSA and 200 μL 10% (w/v) ice-cold trichloroacetic acid. The reactions were centrifuged at 8000 g for 5 min to pellet proteins and liposomes, and 200 μL of the resulting supernatant containing free [^3H]-IP3 was measured by scintillation counting (Ghosh et al., (2004) Methods Mol Biol 237, 67-75) GSK-3β inhibition assay: […]

[2] = molecular target: RGS8 (Homo sapiens (Human), UniProt P57771); assay: FCPIA: Gαo binding to RGS8
Sequence of RGS8 (P57771 other isoform, or with tags, fused parts or gaps): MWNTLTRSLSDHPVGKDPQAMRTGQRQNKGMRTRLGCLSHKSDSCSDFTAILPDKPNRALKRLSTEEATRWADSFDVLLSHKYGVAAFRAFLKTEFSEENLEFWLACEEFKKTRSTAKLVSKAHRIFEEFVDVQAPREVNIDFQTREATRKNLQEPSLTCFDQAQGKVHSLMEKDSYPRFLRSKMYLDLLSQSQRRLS
From the text: (§1) FCPIA Dose Response and Reversibility Experiments:

[3] = molecular target: papain (Carica papaya (Papaya), UniProt P00784); assay: biochemical; type: biochemical
Sequence of papain (P00784 134-345): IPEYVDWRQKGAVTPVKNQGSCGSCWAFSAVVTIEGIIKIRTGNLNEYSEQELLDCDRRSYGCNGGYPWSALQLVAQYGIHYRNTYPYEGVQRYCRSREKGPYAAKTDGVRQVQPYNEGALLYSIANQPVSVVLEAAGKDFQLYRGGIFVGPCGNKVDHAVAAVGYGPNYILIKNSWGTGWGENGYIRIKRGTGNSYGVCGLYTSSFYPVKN
From the text: Papain (Sigma-Aldrich, St. Louis, Mo.) activity was monitored by the increase in fluorescence caused by the liberation of fluorescein from autoquenched fluorescein-conjugated casein (AnaSpec, San Jose, Calif.).

[4] = molecular target: RGS4/Gα0 interaction (Homo sapiens (Human), UniProt P49798); assay: RGS4-GFP membrane translocation (confocal microscopy, HEK-293T); type: cell-based; conditions: 100 μM where stated
Sequence of RGS4/Gα0 interaction (P49798 whole entry): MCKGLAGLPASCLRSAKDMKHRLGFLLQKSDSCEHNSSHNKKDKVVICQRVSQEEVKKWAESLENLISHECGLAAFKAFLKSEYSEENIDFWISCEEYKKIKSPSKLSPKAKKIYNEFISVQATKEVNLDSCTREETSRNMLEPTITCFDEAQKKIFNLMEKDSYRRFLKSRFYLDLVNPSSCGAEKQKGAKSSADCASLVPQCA
Protocol: Cellular Localization Studies:
HEK-293T cells grown to 80-90% confluency in 6-well dishes in DMEM supplemented with 10% fetal bovine serum and Penicillin (100 units/ml)-Streptomycin (100 μg/ml) under 5% CO2 at 37° C. RGS and Gα0 expression was induced by transient co-transfection with either 250 ng of full-length human RGS4 with an N-terminal GFP tag (RGS4pEGFP-C1) or a C-terminal RGS4-GFP (RGS4pDEST47) and 250 ng of pcDNA3.1 or pcDNA with wildtype human Gα0. Cells were split onto poly-D-lysine coated glass coverslips and cultured for 24-48 hours after transfection before live cell imaging. Images were acquired on an Olympus Fluoview 500 confocal microscope with a 60×1.40 numerical aperture (N.A) oil objective. Images were obtained by taking a series of stacks every 0.5 μm through the cell and combining the images into a composite stack. The light source for the fluorescent studies was a 488 nm laser with a 505-525 nm bandpass filter. Images were quantified using NIH ImageJ software version 1.43r.
Confocal Microscopy: HEK-293T cells grown to 80-90% confluency in 6-well dishes in DMEM supplemented with 10% fetal bovine serum and Penicillin (100 units/ml)-Streptomycin (100 μg/ml) under 5% CO2 at 37° C. […] Images were quantified using NIH ImageJ software version 1.43r.

[5] = molecular target: RGS7 (Homo sapiens (Human), UniProt P49802); assay: FCPIA: Gαo binding to RGS7; conditions: Table 7
Sequence of RGS7 (P49802 whole entry, species assumed): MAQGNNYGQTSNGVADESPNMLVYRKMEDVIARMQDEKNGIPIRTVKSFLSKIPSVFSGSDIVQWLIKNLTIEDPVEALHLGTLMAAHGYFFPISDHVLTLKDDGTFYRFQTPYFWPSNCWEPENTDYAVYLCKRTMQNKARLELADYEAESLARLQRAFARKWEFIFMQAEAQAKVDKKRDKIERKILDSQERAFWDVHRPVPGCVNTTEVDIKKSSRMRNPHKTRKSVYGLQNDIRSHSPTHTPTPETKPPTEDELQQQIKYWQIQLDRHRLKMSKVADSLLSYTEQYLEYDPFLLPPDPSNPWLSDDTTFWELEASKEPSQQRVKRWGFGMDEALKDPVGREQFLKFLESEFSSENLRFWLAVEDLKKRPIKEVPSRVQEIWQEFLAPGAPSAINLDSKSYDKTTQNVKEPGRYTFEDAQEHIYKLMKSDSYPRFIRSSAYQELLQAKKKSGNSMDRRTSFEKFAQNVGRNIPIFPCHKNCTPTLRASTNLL
Protocol: as §1
(§2) FCPIA was performed as previously described using chemically biotinylated RGS proteins and AlexaFluor-532 labeled Gα0. (Roman et al., J Biomol Screen, 2009; Blazer, L. L., et al., Mol Pharmacol).
(§3) RGS/Gα binding studies: The binding of biotinylated RGS proteins to fluorescently labeled Gαo was measured by Flow Cytometry Protein Interaction Assay (FCPIA) method previously described (Roman et al., (2009) J Biomol Screen.; Blazer et al., (2010) Curr Protoc Cytom Chapter 13, Unit 13 11 11-15; Roman et al., (2007) Mol Pharmacol 71, 169-175) as were the measures of compound reversibility.

[6] = test system: HEK293 cells; assay: Calcium mobilization induced by compound alone; type: cell-based;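 for Calcium transient (% 50014): percent of response to 10 µM reference CCG-50014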
In short: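 HEK-293 Flp-In TREx cells stably expressing muscarinic M3 receptor, with human RGS4 induced by 1 μg/mL doxycycline for 24-48 h, loaded with Fluo-4 for 30 min at 37° C. Compound added without carbachol; fluorescence followed for 120 s, quantified as area under curve or peak intensity.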

[7] = molecular target: RGS16 (Homo sapiens (Human), UniProt O15492); assay: FCPIA: Gαo binding to RGS16; conditions: Table 7
Sequence of RGS16 (O15492 whole entry, species assumed): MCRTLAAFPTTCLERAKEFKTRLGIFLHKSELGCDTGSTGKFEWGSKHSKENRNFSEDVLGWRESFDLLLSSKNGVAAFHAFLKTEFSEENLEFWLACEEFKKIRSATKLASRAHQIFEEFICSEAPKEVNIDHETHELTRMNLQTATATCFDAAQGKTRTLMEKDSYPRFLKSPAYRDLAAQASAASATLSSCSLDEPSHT
Protocol: as §1, §2, §3

[8] = Solubility experiments; type: physicochemical; conditions: water; aqueous
Protocol: Compounds were diluted to 100 mM in DMSO and the further diluted to 500 μM in H2O, vortexed and centrifuged for 10 minutes at 13,000×g at ambient temperature.

Sequence of PLCβ3 (Q01970 whole entry, species assumed): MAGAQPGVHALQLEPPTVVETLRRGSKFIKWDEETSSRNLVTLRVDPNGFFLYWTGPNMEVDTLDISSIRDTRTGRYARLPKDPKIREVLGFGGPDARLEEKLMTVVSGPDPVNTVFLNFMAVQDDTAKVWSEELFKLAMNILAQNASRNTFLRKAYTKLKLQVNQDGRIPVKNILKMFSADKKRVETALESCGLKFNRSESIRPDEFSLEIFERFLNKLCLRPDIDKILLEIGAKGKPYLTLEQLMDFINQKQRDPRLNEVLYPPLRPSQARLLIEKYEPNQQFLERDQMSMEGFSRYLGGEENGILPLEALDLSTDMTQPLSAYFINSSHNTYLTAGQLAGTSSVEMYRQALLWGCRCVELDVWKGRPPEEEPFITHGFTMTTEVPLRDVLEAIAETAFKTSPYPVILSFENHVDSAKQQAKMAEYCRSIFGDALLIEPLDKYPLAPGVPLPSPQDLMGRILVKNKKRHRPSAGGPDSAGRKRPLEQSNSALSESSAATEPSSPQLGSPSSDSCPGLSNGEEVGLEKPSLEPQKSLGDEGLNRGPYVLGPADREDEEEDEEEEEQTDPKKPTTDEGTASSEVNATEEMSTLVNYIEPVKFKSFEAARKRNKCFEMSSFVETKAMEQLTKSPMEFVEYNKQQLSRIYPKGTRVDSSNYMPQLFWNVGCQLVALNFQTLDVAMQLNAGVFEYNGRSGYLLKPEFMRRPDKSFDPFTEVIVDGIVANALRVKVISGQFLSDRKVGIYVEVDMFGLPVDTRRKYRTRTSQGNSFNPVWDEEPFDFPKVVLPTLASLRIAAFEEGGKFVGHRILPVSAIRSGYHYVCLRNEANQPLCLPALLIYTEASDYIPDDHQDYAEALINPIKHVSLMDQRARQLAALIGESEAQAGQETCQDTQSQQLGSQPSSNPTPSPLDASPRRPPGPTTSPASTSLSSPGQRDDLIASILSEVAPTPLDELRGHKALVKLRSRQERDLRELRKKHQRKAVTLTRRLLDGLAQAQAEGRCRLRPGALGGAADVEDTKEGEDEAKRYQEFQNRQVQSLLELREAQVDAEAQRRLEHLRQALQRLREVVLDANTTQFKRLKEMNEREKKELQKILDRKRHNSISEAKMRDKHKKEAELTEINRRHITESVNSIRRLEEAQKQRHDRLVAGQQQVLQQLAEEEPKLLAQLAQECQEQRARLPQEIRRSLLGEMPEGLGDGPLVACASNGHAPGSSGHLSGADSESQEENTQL

Q: With CCCCn1c(=O)sn(CC)c1=O [CCG-203769, 2-ethyl-4-butyl-1,2,4-thiadiazolidine-3,5-dione] as the molecule, how does the IC50 [1] read?
A: Its IC50 is over 100 µM.

Q: And the “RGS8 Hill Slope” value ([2]; Table 3)?
A: The value was −0.56.

Q: And the IC50 ([2]; Table 6, FCPIA, read-out: RGS8 IC50)?
A: Its IC50 is 83.5 µM.

Q: And the IC50 ([2]; Table 7, read-out: IC50 (μM), RGS8)?
A: Its IC50 is 79 µM.

Q: What about the inhibition of papain ([3]; 30 μM) of the same molecule?
A: The inhibition of papain was “unable to inhibit the protease activity of papain”.

Q: And the IC50 ([3]; Table 7)?
A: The IC50 was over 100 µM.

Q: What about the “reversal of Gα0-induced RGS4 membrane translocation” value [4] of the same molecule?
A: Its value is “reverses the membrane translocation”.

Q: And the IC50 [5]?
A: Its IC50 is over 100 µM.

Q: And the “induction of calcium transient by compound alone” value ([6]; 10 μM, HEK293 cells)?
A: The value was “no ability to induce calcium mobilization”.

Q: What about the Emax at 10 µM ([6]; Homo sapiens, HEK293, read-out: Calcium transient (% 50014)) of the same molecule?
A: The Emax at 10 µM was 2.7%.

Q: What about the IC50 [7] of the same molecule?
A: Its IC50 is 6 µM.

Q: What about the solubility [8] of the same molecule?
A: The solubility was over 5 mM.
